Source: US20220280526A1, “AGENT FOR THE TREATMENT OF PSORIASIS” (EBERHARD KARLS UNIVERSITAET TUEBINGEN MEDIZINISCHE FAKULTAET, priority 2019, published 2022)

What was measured:
STAT3 lysine methylation = experiment: Detection of methylated STAT3 by immunoprecipitation in HEK293T cells; format: cell-based; settings: STAT3- and EZH2-overexpressing HEK293T cells, 1 h treatment
Description: HEK293T cells were transfected using HBS buffer and CaCl2. HaCaT cells were transfected with Lipofectamine 3000, according to the manufacturer's instructions (Thermo Fisher). 5 μg expression constructs were incubated with 3*10^5 cells for 4 h. 36-48 h post transfection, cells were harvested and analysed.
Western blot analysis was performed as described before. The following antibodies were used and purchased from Cell Signaling: anti-IκBζ (9244), anti-phospho-STAT3 at Tyr705 (9145), anti-phospho-STAT3 at Ser727 (9134), anti-STAT3 (12640), anti-p65 (8242), anti-EZH2 (5246), anti-pRB (phospho-RB at Ser807/811; 8516), anti-FoxM1 (5436), anti-H3 (4499), anti-CDK4 (12790), anti-CDK6 (13331), anti-CDK9 (2316), anti-cyclin D1 (2978), anti-cyclin D2 (3741), anti-cyclin D3 (2936), anti-cJUN (9165), anti-H3K27me3 (9733), anti-GAPDH (2118), anti-H3 (9715) and anti-β-actin (3700). Anti-β-Gal (sc377257) and anti-GFP (sc9996) were obtained from Santa Cruz Biotechnology. Anti-pEZH2 at T345 (61242) anti-pEZH2 at T487 (12820) were purchased from Active Motif and anti-pan-methyl-lysine antibody was purchased from Enzo (ADI-KAP-TF121-E). For detection of mouse IκBζ, a self-made antibody raised against peptides […] (SEQ ID NO:3) and […] (SEQ ID NO:4) was applied. […]

EZH2 = EZH2 phosphorylation in keratinocytes (immunoblot); format: cell-based, human; settings: IL-36α- or IL-17A/TNFα-treated keratinocytes
Excerpt: HaCaT cells were maintained in DMEM with 10% FCS and antibiotics. Human primary keratinocytes were freshly isolated from foreskin and maintained in CnT-07S medium with gentamycin (CELLnTEC). Recombinant human IL-36α (aa 6-158) and mouse IL-36α (aa 6-160) were purchased from R&D Systems. Recombinant IL-17A (11340174), TNFα (11343013) and IL-1β (11340013) were ordered from Immunotools. Flagellin (vac-fla) and poly I:C (vac-pic) were purchased from Invivogen. In cell culture experiments, the cytokines were used at the following concentrations, as described previously: IL-36α (100 ng/mL), IL-17A (200 ng/mL), TNFα (10 ng/mL) and IL-1β (100 ng/mL). Flagellin was applied at 10 ng/mL and poly(I:C) was added at a final concentration of 100 ng/mL. […] When indicated, cells were starved for 2 h prior to cytokine treatment, by removing cell culture supplements from the growth medium.
Western blot analysis was performed as described before. […]

IκBζ expression = IκBζ expression in synchronized HaCaT cells stimulated with IL-36α; format: cell-based; settings: 1 h IL-36α
Description: Synchronization of the cells with a double thymidine block was performed as described before. After the second thymidine block, cells were released in normal medium. At 0, 4, 10 and 14 h after release, cells were stimulated with IL-36α and/or abemaciclib for 1 h. Propidium iodide staining was performed by flow cytometry (LSRII, Becton Dickson) to detect the cell cycle phase at the time point of cell harvest.
Western blot analysis was performed as described before. The following antibodies were used and purchased from Cell Signaling: anti-IκBζ (9244), anti-phospho-STAT3 at Tyr705 (9145), anti-phospho-STAT3 at Ser727 (9134), anti-STAT3 (12640), anti-p65 (8242), anti-EZH2 (5246), anti-pRB (phospho-RB at Ser807/811; 8516), anti-FoxM1 (5436), anti-H3 (4499), anti-CDK4 (12790), anti-CDK6 (13331), anti-CDK9 (2316), anti-cyclin D1 (2978), anti-cyclin D2 (3741), anti-cyclin D3 (2936), anti-cJUN (9165), anti-H3K27me3 (9733), anti-GAPDH (2118), anti-H3 (9715) and anti-β-actin (3700). Anti-β-Gal (sc377257) and anti-GFP (sc9996) were obtained from Santa Cruz Biotechnology. Anti-pEZH2 at T345 (61242) anti-pEZH2 at T487 (12820) were purchased from Active Motif and anti-pan-methyl-lysine antibody was purchased from Enzo (ADI-KAP-TF121-E). For detection of mouse IκBζ, a self-made antibody raised against peptides […] (SEQ ID NO:3) and […] (SEQ ID NO:4) was applied.

[1] = test system: STAT3, EZH2, CDK4 and CDK6 binding to the NFKBIZ promoter region; experiment: Chromatin immunoprecipitation at the NFKBIZ promoter in IL-36α-stimulated HaCaT cells; format: cell-based; settings: 30 min IL-36α
NFKBIZ (IκBζ) promoter = experiment: Luciferase assay of NFKBIZ promoter activity in HaCaT cells; format: cell-based; settings: IL-36α-stimulated HaCaT cells, 24 h
Description: Luciferase constructs were generated as described; Muller et al. (2018; loc. Cit.). 1*10^4 HEK293T cells were transfected for 24 h using HBS buffer and CaCl2 and a mixture of 400 ng luciferase vector and 100 ng TK-Renilla vector. For expression of other factors, the following concentrations were used: 70 ng p65, 200 ng cJUN, STAT3 or EZH2 constructs and 500 ng CDK4, CDK6 or cyclin D expression constructs (not shown). For transfection of HaCaT cells, 3*10^5 cells were transfected for 4 h using Lipofectamine 3000 and a mixture of 800 ng luciferase vector, 200 ng TK-Renilla vector and 4 μg expression or control plasmids according to the manufacturer's instructions (Thermo Fisher). 36 h after transfection, luciferase activity was measured with the Dual Luciferase Reporter Assay Kit (Promega). Expression of the reporter constructs was calculated as the fold induction over unstimulated transfected cells from data of three independent experiments.

EZH2-STAT3 interaction = experiment: Co-immunoprecipitation of EZH2 and STAT3 in HaCaT cells; format: cell-based; settings: 30 min IL-36α
Description: Cells were lysed by mechanical disruption using standard lysis buffer (50 mM Tris-HCl pH 7.5, 150 mM NaCl, 1% NP-40, lx Protease inhibitor cocktail, Roche). Subsequently, lysates were sonicated for 5 minutes at high power (Bioruptor, Diagenode), followed by pre-clearing of the lysates with protein A/G PLUS agarose beads (Santa Cruz, sc-2003) for 1 h at 4° C. Precleared lysates were incubated either with antibodies specific for CDK4 (Cell Signaling, 12790), CDK6 (Sigma, HPA002637), EZH2 (Cell Signaling, 5246), STAT3 (MA1-13042, Thermo Fisher) or β-Gal antibody (sc-19119, Santa Cruz) as an IgG control, overnight at 4° C. For endogenous IPs immune complexes were precipitated with protein A/G PLUS agarose beads and eluted by 6×SDS-PAGE sample buffer.

Abemaciclib mesylate
lysine methylation of STAT3 (STAT3 lysine methylation): abrogated | inducible phosphorylation of EZH2 at threonine 345 (T345) (EZH2): completely abrogated | IL-36α-triggered IκBζ induction in all phases of the cell cycle (IκBζ expression): completely suppressed | recruitment of STAT3/EZH2/CDK4/6 multi-protein complex to the NFKBIZ promoter region [1]: abrogated | expression of luciferase construct harboring the NFKBIZ (IκBζ) promoter (NFKBIZ (IκBζ) promoter): abrogated | interaction of EZH2 with STAT3 (EZH2-STAT3 interaction): abrogate
